Tests used:
Experiment in all cases: relative viability (nuclei count vs DMSO), 5 days (fraction); higher = more cells survive
[1] = tested on: LXF-289
How it was run: (§1)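 Lung cancer cell lines in 1536-well plates got either a single drug or a fixed anchor-drug dose together with five library-drug doses (not always all listed) in √10 steps, by pin tool, on the day after seeding. Nuclei were counted after 5 days, and relative viability is the treated-to-vehicle ratio of nuclei counts. Values are medians of duplicate plates.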

[2] = tested on: NCI-H3122
How it was run: as §1

[3] = tested on: NCI-H838
How it was run: as §1

[4] = tested on: NCI-H1666
How it was run: as §1

[5] = tested on: NCI-H2170
How it was run: as §1

[6] = tested on: BEN
How it was run: as §1

[7] = tested on: EKVX
How it was run: as §1

[8] = tested on: NCI-H23
How it was run: as §1

[9] = tested on: SK-MES-1
How it was run: as §1

[10] = tested on: NCI-H520
How it was run: as §1

[11] = tested on: LU99A
How it was run: as §1

[12] = tested on: NCI-H727
How it was run: as §1

[13] = tested on: NCI-H322M
How it was run: as §1

[14] = tested on: HOP-62
How it was run: as §1

[15] = tested on: HCC-827
How it was run: as §1

[16] = tested on: EPLC-272H
How it was run: as §1

[17] = tested on: UMC-11
How it was run: as §1

[18] = tested on: NCI-H2405
How it was run: as §1

[19] = tested on: NCI-H1975
How it was run: as §1

## COCC1(CO)C(=O)C2CCN1CC2 (stereo not given) [PRIMA-1MET] + CC1(C)CCC(c2ccc(Cl)cc2)=C(CN2CCN(c3ccc(C(=O)NS(=O)(=O)c4ccc(N[C@H](CCN5CCOCC5)CSc5ccccc5)c(S(=O)(=O)C(F)(F)F)c4)cc3)CC2)C1 [Navitoclax] (partner 0.5 µM)
[1]; first compound 0.2 µM
  relative viability: 0.966
[1]; first compound 0.6325 µM
  relative viability: 0.956
[1]; first compound 2 µM
  relative viability: 0.93
[1]; first compound 6.325 µM
  relative viability: 0.986
[1]; first compound 20 µM
  relative viability: 0.903
[2]; first compound 0.2 µM
  relative viability: 0.926
[2]; first compound 0.6325 µM
  relative viability: 1.02
[2]; first compound 2 µM
  relative viability: 1.05
[2]; first compound 6.325 µM
  relative viability: 1.01
[2]; first compound 20 µM
  relative viability: 0.976
[3]; first compound 0.2 µM
  relative viability: 1.38
[3]; first compound 0.6325 µM
  relative viability: 1.12
[3]; first compound 2 µM
  relative viability: 1.23
[3]; first compound 6.325 µM
  relative viability: 1.23
[3]; first compound 20 µM
  relative viability: 1.15
[4]; first compound 0.2 µM
  relative viability: 1.01
[4]; first compound 0.6325 µM
  relative viability: 0.858
[4]; first compound 2 µM
  relative viability: 1.03
[4]; first compound 6.325 µM
  relative viability: 0.895
[4]; first compound 20 µM
  relative viability: 0.249
[5]; first compound 0.2 µM
  relative viability: 0.621
[5]; first compound 0.6325 µM
  relative viability: 0.543
[5]; first compound 2 µM
  relative viability: 0.456
[5]; first compound 6.325 µM
  relative viability: 0.622
[5]; first compound 20 µM
  relative viability: 0.554
[6]; first compound 0.2 µM
  relative viability: 0.0631
[6]; first compound 0.6325 µM
  relative viability: 0.0967
[6]; first compound 6.325 µM
  relative viability: 0.0571
[6]; first compound 20 µM
  relative viability: 0.0562
[7]; first compound 0.2 µM
  relative viability: 1.03
[7]; first compound 0.6325 µM
  relative viability: 0.621
[7]; first compound 2 µM
  relative viability: 0.71
[7]; first compound 6.325 µM
  relative viability: 0.938
[7]; first compound 20 µM
  relative viability: 0.777
[8]; first compound 0.2 µM
  relative viability: 1.03
[8]; first compound 0.6325 µM
  relative viability: 0.668
[8]; first compound 2 µM
  relative viability: 0.701
[8]; first compound 6.325 µM
  relative viability: 0.811
[8]; first compound 20 µM
  relative viability: 0.119
[9]; first compound 0.2 µM
  relative viability: 1.2
[9]; first compound 0.6325 µM
  relative viability: 1.28
[9]; first compound 2 µM
  relative viability: 1.19
[9]; first compound 6.325 µM
  relative viability: 1.27
[9]; first compound 20 µM
  relative viability: 1.23
[10]; first compound 0.2 µM
  relative viability: 1.25
[10]; first compound 0.6325 µM
  relative viability: 1.06
[10]; first compound 6.325 µM
  relative viability: 1.17
[10]; first compound 20 µM
  relative viability: 0.131
[11]; first compound 0.2 µM
  relative viability: 1.06
[11]; first compound 0.6325 µM
  relative viability: 0.611
[11]; first compound 2 µM
  relative viability: 0.898
[11]; first compound 6.325 µM
  relative viability: 0.752
[11]; first compound 20 µM
  relative viability: 0.101
[12]; first compound 0.2 µM
  relative viability: 0.54
[12]; first compound 0.6325 µM
  relative viability: 0.41
[12]; first compound 2 µM
  relative viability: 0.398
[12]; first compound 6.325 µM
  relative viability: 0.311
[12]; first compound 20 µM
  relative viability: 0.105
[13]; first compound 0.2 µM
  relative viability: 1.51
[13]; first compound 6.325 µM
  relative viability: 1.4
[13]; first compound 20 µM
  relative viability: 1.13
[14]; first compound 0.2 µM
  relative viability: 1.44
[14]; first compound 0.6325 µM
  relative viability: 1.01
[14]; first compound 2 µM
  relative viability: 0.94
[14]; first compound 6.325 µM
  relative viability: 0.962
[14]; first compound 20 µM
  relative viability: 0.839
[15]; first compound 0.2 µM
  relative viability: 1.01
[15]; first compound 0.6325 µM
  relative viability: 0.9
[15]; first compound 2 µM
  relative viability: 0.721
[15]; first compound 6.325 µM
  relative viability: 1
[15]; first compound 20 µM
  relative viability: 1.03
[16]; first compound 0.2 µM
  relative viability: 1.33
[16]; first compound 0.6325 µM
  relative viability: 0.933
[16]; first compound 2 µM
  relative viability: 1.15
[16]; first compound 6.325 µM
  relative viability: 1.15
[16]; first compound 20 µM
  relative viability: 0.989
[17]; first compound 0.2 µM
  relative viability: 0.347
[17]; first compound 0.6325 µM
  relative viability: 0.268
[17]; first compound 2 µM
  relative viability: 0.332
[17]; first compound 6.325 µM
  relative viability: 0.331
[17]; first compound 20 µM
  relative viability: 0.333
[18]; first compound 0.2 µM
  relative viability: 0.676
[18]; first compound 0.6325 µM
  relative viability: 0.989
[18]; first compound 6.325 µM
  relative viability: 0.52
[18]; first compound 20 µM
  relative viability: 0.078
[19]; first compound 0.2 µM
  relative viability: 1.13
[19]; first compound 0.6325 µM
  relative viability: 1.03
[19]; first compound 2 µM
  relative viability: 1.12
[19]; first compound 6.325 µM
  relative viability: 1.21
[19]; first compound 20 µM
  relative viability: 0.96
